From patent US4017487A, “7β-(D-5-amino-5-carboxyvaleramido )-7-methoxy-3-substituted-3-cephem-4-carboxylic acid antibiotics” (priority 1974, dated 1977)
Structures can show the parent of a compound that is named as a salt. Where two headings read alike, the source gives them in different places.

Columns and labels:
Salmonella gallinarum = assay: In vitro disc-plate agar diffusion, antibacterial spectrum (7 mm = no zone); format: cell-based; conditions: Salmonella enterica, 16 h, 192 μg/ml, inoculum 10 ml/150 ml, 25° C., read-out: Inhibition Zone Diameter
Escherichia coli W-MB-60 = assay: Special effects spectrum in vitro study, disc-plate (7 mm = no zone); format: cell-based; conditions: WMB60, 16 h
Escherichia coli strains = assay: microbe, parasite or virus in culture; format: cell-based; conditions: 16 h, 192 μg/ml, Sensitive parent, 25° C., read-out: Inhibition Zone Diameter
Escherichia coli = assay: In vitro disc-plate agar diffusion, antibacterial spectrum (7 mm disc; 7 mm = no inhibition zone); format: cell-based; conditions: 16 h, 192 μg/ml, inoculum 5 ml/150 ml, 25° C., read-out: Inhibition Zone Diameter
Proteus vulgaris = assay: In vitro disc-plate agar diffusion, antibacterial spectrum (7 mm = no zone); format: cell-based; conditions: 16 h, read-out: Inhibition Zone Diameter
Bacillus subtilis = assay: as above; format: cell-based; conditions: 16 h, read-out: Inhibition Zone Diameter
Vibrio percolans MB-1272 = assay: Disc-plate assay using Vibrio percolans
Bacillus sp. = assay: In vitro disc-plate agar diffusion, antibacterial spectrum (7 mm = no zone); format: cell-based; conditions: 16 h, 192 μg/ml, inoculum 5 ml/150 ml, 25° C., read-out: Inhibition Zone Diameter
Xanthomonas vesicatoria = assay: as above; format: cell-based; conditions: 16 h, read-out: Inhibition Zone Diameter
[1] = tested on: gram-negative and gram-positive bacteria; assay: Antibacterial activity (general statements); format: cell-based
[2] = tested on: Alcaligenes faecalis (MB-9); conditions: alcaligenes faecalis cells, 3 h
[3] = tested on: Aerobacter cloacae (MB-2646); assay: Bacterial inactivation, cell-free extract; format: biochemical; conditions: for Antibiotic Activity Remaining: starting 250 μg./ml.
Description: The ability of Antibiotic 810A and cephalosporin C to withstand the degradative effect of the culture Aerobacter cloacae (MB-2646) was also determined. This culture is gram-negative and resistant to cephalosporin C. […] The source of the inactivating substance is a 1:160 dilution of the filtrate of an 18 hour 37° C. shake culture of Aerobacter cloacae MB-2646 in nutrient broth containing 0.2% yeast extract. Table XIV, infra, indicates the percent inactivation of Antibotic 810A, cephalothin, cephaloridine and cephalosporin C on Vibrio percolans (MB-1272) via this method:
Using the same assay procedure as described above, Table XV, infra, indicates the relative resistance of Antibiotic 810A to enzymatic inactivation by Aerobacter cloacae. The starting concentration is 250 μg./ml. Results are expressed in μg./ml.

Proteus morganii 356 [4] = assay: In vivo mouse protection test, cephalosporin-resistant clinical isolate; design: species or system white Swiss mice; conditions: s.c. × 2 doses
Excerpt: (§1) Methods: The method employed in this characterization is as follows: Female white Swiss mice, average weight 20-23 grams, were infected intraperitoneally with 3-20 times the number of organisms calculated to be lethal for 50% of the infected control animals (3-20 LD50 doses). At the time of infection and again six hours later, therapy was given by the designated route. Controls of the virulence of the culture and the toxicity of the antibiotic for uninfected mice were included in the tests. Seven days after infection the test was considered complete and the amount of the antibiotic (I) that would be required to protect 50% of the infected and treated animals was calculated by the method of Knudsen and Curtis; J. Amer. Stat. Assoc. Vol. 42: page 282 (1947).
In addition to the aforementioned in vivo trials of the product, a clinical isolate of Proteus morganii 356 which is resistant to cephalosporins and capable of degrading cephalosporin C, was employed in a mouse protection test performed in the same manner as reported above.

Proteus morganii 3202 = assay: In vivo mouse protection test; design: species or system white Swiss mice; conditions: 4000 mg. × 2 doses
Excerpt: as §1
The method employed in these studies is the same as described above with regard to the in vivo characterization of 810A. The results of these tests are described below in Table XIb:
Administration was by subcutaneous injection. At the completion of the test period, usually seven days after administration, the amount of product required to protect 50% of the mice (ED50) from this otherwise fatal injection was calculated: […]

Proteus vulgaris MB-838 = assay: Disc-plate assay using Proteus vulgaris
penicillinase = conditions: cited from earlier work
[5] = tested on: Alcaligenes viscosus (MB-12); assay: Bacterial inactivation, washed bacterial cells; conditions: 4 hour incubation; assayed on B. subtilis (MB-964) plates
Proteus mirabilis 241 = assay: Bacterial inactivation; conditions: four hours; B. subtilis (MB-964); 240 min
Proteus morganii 356 [6] = assay: Bacterial inactivation; conditions: four hours; B. subtilis (MB-964); 240 min
[7] = tested on: Alcaligenes faecalis (MB-9); conditions: known property of the organism; cited from earlier work
Proteus morganii 251 = assay: Bacterial inactivation; conditions: four hours; B. subtilis (MB-964); 240 min
[8] = tested on: gram-negative and gram-positive bacteria; conditions: cited from earlier work
Escherichia coli 236 = assay: Bacterial inactivation; conditions: four hours; B. subtilis (MB-964); 240 min
[9] = tested on: gram-negative and gram-positive infections; assay: In vivo protection against infection (general statements); design: species or system mice
Excerpt: as §1
The method employed in these studies is the same as described above with regard to the in vivo characterization of 810A.

[10] = tested on: degradative bacteria / enzymatic degradation; assay: Resistance to enzymatic degradation / bacterial inactivation (general statements); format: biochemical; conditions: compared with cephalosporin C
Excerpt: Bacterial Inactivation with 810A: An in vitro study was designed to determine the resistance of Antibiotic 810A, to bacterial inactivation as compared with cephalosporin C, cephaloridine and cephalothin.

[11] = 2 hour incubation, cell-free extract, assayed on V. percolans (MB-1272) plates
[12] = 2 hour incubation, assay organism B. subtilis 964
[13] = 2 hour incubation, assay organism V. percolans 1272

In the case of `CO[C@@]1(NC(=O)CCC[C@@H](N)C(=O)O)C(=O)N2C(C(=O)O)=C(COC(N)=O)CS[C@@H]21` [Sodium Salt], the zone of inhibition at 192 µg/mL (Salmonella gallinarum) is reported as 25 mm, the zone of inhibition at 192 µg/mL (Escherichia coli W-MB-60; pH 9, read-out: Inhibition Zone Diameter, 192 μg/ml, 0.1 M Phosphate Buffer pH 9) is reported as 24 mm and the zone of inhibition at 192 µg/mL (Escherichia coli W-MB-60; read-out: Inhibition Zone Diameter, 192 μg/ml, Cation Exchange Resin (Dow ET 91) 1%) is reported as 18 mm. The zone of inhibition at 192 µg/mL (Escherichia coli W-MB-60; read-out: Inhibition Zone Diameter, 192 μg/ml, Control (no additions)) was 18 mm, the zone of inhibition at 192 µg/mL (Escherichia coli strains) was 18 mm and the zone of inhibition at 192 µg/mL (Escherichia coli) was 18 mm. The zone of inhibition at 192 µg/mL (Proteus vulgaris) was 24 mm, the zone of inhibition at 192 µg/mL (Bacillus subtilis) was 18 mm and the “concentration giving a 25 mm. zone” value (Vibrio percolans MB-1272; 25 mm. zone, listed as Sodium Salt of 842A) was 5 µg/mL. The zone of inhibition at 192 µg/mL (Bacillus sp.) was 7 mm and the zone of inhibition at 192 µg/mL (Xanthomonas vesicatoria) was 17 mm.

For `CO[C@@]1(NC(=O)CCC[C@@H](N)C(=O)O)C(=O)N2C(C(=O)O)=C(CN=[N+]=[N-])CS[C@@H]21` [7β-(D-5-amino-5-carboxyvaleramido)-3-(azidomethyl)-7-methoxy-3-cephem-4-carboxylic acid], the bioactivity ([1]; several strains of bacteria) was “possessed bioactivity against several strains of bacteria”.

In the case of `CC(=O)OCC1=C(C(=O)O)N2C(=O)[C@@H](NC(=O)Cc3cccs3)[C@H]2SC1` [Cephalothin], the “percent inactivation” value [2] is reported as 50%, the “percent inactivation” value [3, 11] is reported as 66% and the “Antibiotic Activity Remaining” value [3, 12] is reported as 140 µg/mL. For the same compound, the “Antibiotic Activity Remaining” value [3, 13] was 85 µg/mL, the “ED50 by Subcutaneous Route × 2 Doses (average of Two Trials)” value (Proteus morganii 356 [4]) was > 20,000 μg and the “protection against Proteus morganii 3202” value (Proteus morganii 3202) was “failed to protect”.

Compound `COC(=Cc1ccc(O)cc1)C(=O)OCC1=C(C(=O)O)N2C(=O)[C@](NC(=O)CCC[C@@H](N)C(=O)O)(OC)[C@H]2SC1` [7β-(D-5-amino-5-carboxyvaleramido)-3-(α-methoxy-p-hydroxycinnamoyloxymethyl)-7-methoxy-3-cephem-4-carboxylic acid] has an IC (25 mm zone) (Proteus vulgaris MB-838; Proteus vulgaris, MB838, read-out: bio-potency (concentration for a 25 mm. zone)) of 18 µg/mL.

With `O=C(Cc1cccs1)N[C@@H]1C(=O)N2C(C(=O)[O-])=C(C[n+]3ccccc3)CS[C@H]12` [Cephaloridine] the “Antibiotic Activity Remaining” value [3, 12] was < 10 µg/mL, the “Antibiotic Activity Remaining” value [3, 13] was < 10 µg/mL and the “percent inactivation” value ([3]; aerobacter cloacae culture filtrate, 2 h) was 96%. For the same compound, the “ED50 by Subcutaneous Route × 2 Doses (average of Two Trials)” value (Proteus morganii 356 [4]) was 9,270 μg and the “protection against Proteus morganii 3202” value (Proteus morganii 3202) was “failed to protect”.

In the case of `CC1(C)S[C@@H]2[C@H](NC(=O)Cc3ccccc3)C(=O)N2[C@H]1C(=O)O` [Penicillin G], the resistance to penicillinase (penicillinase) is listed as “in the presence of penicillinase it is degraded to a form which is ineffective against most pathogens”.

With `CC(=O)OCC1=C(C(=O)O)N2C(=O)[C@@H](NC(=O)CCC[C@@H](N)C(=O)O)[C@H]2SC1` [Cephalosporin C] the “percent inactivation” value [5] was > 99%, the percent inactivation (Proteus mirabilis 241) was 72% and the percent inactivation (Proteus morganii 356 [6]) was > 99%. The “inactivation of cephalosporin C” value [7] was “completely inactivate”, the “percent inactivation” value [3, 11] was 96% and the percent inactivation (Proteus morganii 251) was > 99%. The antibacterial activity [8] was “only moderately active”, the antibacterial activity ([8]; listed as cepahlosporin C) was “relatively low antibacterial activity” and the resistance to penicillinase (penicillinase) was “inherent resistance to penicillinase”. The percent inactivation (Escherichia coli 236) was > 99%.

In the case of `COC(=Cc1ccc(OS(=O)(=O)O)cc1)C(=O)OCC1=C(C(=O)O)N2C(=O)[C@](NC(=O)CCC[C@@H](N)C(=O)O)(OC)[C@H]2SC1` [Ic, 7β-(D-5-amino-5-carboxyvaleramido)-3-(α-methoxy-p-sulfooxycinnamoyloxymethyl)-7-methoxy-3-cephem-4-carboxylic acid], the “in vivo protection / activity” value ([9]; mouse, in vivo) is reported as “when administered intraperitoneally, it is effective against a variety of gram-negative and gram-positive infections”, the “oral protection against infections” value ([9]; oral) is reported as “protects against infections due to Proteus vulgaris” and the “Total Biological Units” value (Proteus vulgaris MB-838; Example 6 separation) is reported as 10,000 units. The “resistance to enzymatic degradation” value [10] was “more resistant to enzymatic degradation than cephalosporin C”.

For `CO[C@@]1(NC(=O)CCC[C@@H](NC(=O)OC(C)(C)C)C(=O)O)C(=O)N2C(C(=O)O)=C(COC(N)=O)CS[C@@H]21` [7β-(D-5N-tert-tertiary-butoxycarbonylamino-5-carboxyvaleramido)-3-(carbamoyloxymethyl)-7-methoxy-3-cephem-4-carboxylic acid], the “biopotency relative to starting material” value ([1]; relative to disodium salt of 842A) was “one-tenth”.

With `CO[C@@]1(NC(=O)CCC[C@@H](N)C(=O)O)C(=O)N2C(C(=O)O)=C(C)CS[C@@H]21` [7β-(D-5-amino-5-carboxyvaleramido)-3-methyl-7-methoxy-3-cephem-4-carboxylic acid] the bioactivity (Vibrio percolans MB-1272; 50 μg/ml) was “Inactive”.
